From ChEMBL document CHEMBL3046351, “Insecticidal, antifeedant and antifungal activities of two glucosides isolated from the seeds of Simmondsia chinensis” (Ind Crops Prod, 2007)
In brackets after ≈: the same amount, converted by molar mass.

Key:
[1] = system: Rhizoctonia solani; assay: Antifungal activity against Rhizoctonia solani by radial growth inhibition method; type: functional, organism-based
[2] = system: Spodoptera littoralis; assay: Antifeedant activity against third instar larvae of Spodoptera littoralis fed on compound-treated cotton leaf disks assessed as antifeedant index at 10 ug/ml measured after 24 hr by no-choice leaf disc method; type: functional
[3] = system: Globisporangium debaryanum; assay: Antifungal activity against Pythium debaryanum by radial growth inhibition method; type: functional, organism-based
[4] = system: Spodoptera littoralis; assay: Antifeedant activity against third instar larvae of Spodoptera littoralis fed on compound-treated cotton leaf disks assessed as antifeedant index at 100 ug/ml measured after 24 hr by no-choice leaf disc method; type: functional
[5] = system: Spodoptera littoralis; assay: Antifeedant activity against third instar larvae of Spodoptera littoralis fed on compound-treated castor bean leaf disks assessed as antifeedant index at 500 ug/ml measured after 24 hr by no-choice leaf disc method
[6] = system: Fusarium oxysporum; assay: Antifungal activity against Fusarium oxysporum by radial growth inhibition method; type: functional, organism-based
[7] = system: Botrytis fabae; assay: Antifungal activity against Botrytis fabae by radial growth inhibition method; type: functional, organism-based
[8] = system: Spodoptera littoralis; assay: Antifeedant activity against third instar larvae of Spodoptera littoralis fed on compound-treated castor bean leaf disks measured after 24 hr by no-choice leaf disc method
[9] = system: Spodoptera littoralis; assay: Antifeedant activity against third instar larvae of Spodoptera littoralis fed on compound-treated cotton leaf disks assessed as antifeedant index at 50 ug/ml measured after 24 hr by no-choice leaf disc method; type: functional
[10] = system: Spodoptera littoralis; assay: Antifeedant activity against third instar larvae of Spodoptera littoralis fed on compound-treated castor bean leaf disks assessed as antifeedant index at 1000 ug/ml measured after 24 hr by no-choice leaf disc method
[11] = system: Spodoptera littoralis; assay: Insecticidal activity against third instar larvae of topically treated Spodoptera littoralis assessed per larva after 24 hr; type: functional
[12] = system: Rhizoctonia solani; assay: Antifungal activity against Rhizoctonia solani; type: functional, organism-based

| Structure (SMILES) | EC50 [1] | EC50 [3] | EC50 [6] | EC50 [7] | LD50 [11] | EC50 [12] | also measured |
| --- | --- | --- | --- | --- | --- | --- | --- |
| CO[C@H]1[C@@H](OC)C[C@@H](O[C@H]2O[C@@H](CO)[C@H](O)[C@@H](O)[C@@H]2O)/C(=C\C#N)[C@@H]1O [SIMMONDSIN] | 129 mg/L (≈ 344 µM) | 147 mg/L (≈ 391 µM) | 223 mg/L (≈ 595 µM) | 116 mg/L (≈ 310 µM) | 1.49 µg | – | AFI [2]: 38.1%; AFI [4]: 63.4%; AFI [5]: 78.9%; Activity [8]: Dose-dependent effect; AFI [9]: 46.2%; AFI [10]: 92.1% |
| Cc1ccc(C(C)C)c(O)c1 [THYMOL] | – | – | – | – | – | 4 mg/L (≈ 26.6 µM) | – |
| CC1(C)C2CCC1(C)C(O)C2 (stereo not drawn) [BORNEOL] | – | – | – | – | – | 447 mg/L (≈ 2900 µM) | – |
| Cc1ccc(C(C)C)cc1O [CARVACROL] | – | – | – | – | – | 41 mg/L (≈ 273 µM) | – |
| CCOP(=S)(OCC)Oc1nc(Cl)c(Cl)cc1Cl [CHLORPYRIFOS] | – | – | – | – | 0.12 µg | – | – |
| O=C/C=C/c1ccccc1 [CINNAMALDEHYDE] | – | – | – | – | – | 169 mg/L (≈ 1280 µM) | – |
| COc1cc(/C=C\C(=O)O[C@@H]2[C@@H](O[C@@H]3C[C@H](OC)[C@H](OC)[C@@H](O)/C3=C/C#N)O[C@@H](CO)[C@H](O)[C@H]2O)ccc1O [SIMMONDSIN 2'-FERULATE] | 146 mg/L (≈ 265 µM) | 154 mg/L (≈ 279 µM) | 293 mg/L (≈ 532 µM) | 146 mg/L (≈ 265 µM) | 2.58 µg | – | AFI [2]: 32.3%; AFI [4]: 60.9%; AFI [5]: 76.9%; Activity [8]: Dose-dependent effect; AFI [9]: 44.2%; AFI [10]: 90% |
| CC12CCC(CC1=O)C2(C)C (stereo not drawn) [CAMPHOR] | – | – | – | – | – | 488 mg/L (≈ 3210 µM) | – |
| COP(=S)(OC)Oc1c(Cl)cc(C)cc1Cl [TOLCOFOS-METHYL] | 5.7 mg/L (≈ 18.9 µM) | 8.9 mg/L (≈ 29.6 µM) | 51.3 mg/L (≈ 170 µM) | 21.9 mg/L (≈ 72.7 µM) | – | – | – |
| C=C(C)C1CC=C(C)[C@@H](O)C1 (stereo partly drawn) [CARVEOL] | – | – | – | – | – | 92 mg/L (≈ 604 µM) | – |
